Reference: ChEMBL document CHEMBL4800722, “Data for DCP probe BI 605906” (2021)

Experiments:
[1] = target: Calcium/calmodulin-dependent protein kinase type II subunit gamma (Homo sapiens) (UniProt Q13555); conditions: Compound concentration 1.0 uM
[2] = target: Sphingosine kinase 1 (Homo sapiens) (UniProt Q9NYA1); assay: SPHK1 Invitrogen Lab (UK) kinase screen (BI); conditions: Compound concentration 1.0 uM
[3] = target: Phosphodiesterase 3 (Homo sapiens) (UniProt Q14432+Q13370); assay: PDE-III/HU Eurofins SafetyScreen44 (BI); assay type: protein assay; conditions: Compound concentration 10.0 uM
[4] = target: Mitogen-activated protein kinase kinase kinase 19 (Homo sapiens) (UniProt Q56UN5); conditions: Compound concentration 1.0 uM
[5] = target: Mitogen-activated protein kinase 8 (Homo sapiens) (UniProt P45983); assay: JNK1A1SAPK1C DUNDEE kinase screen (BI); conditions: Compound concentration 10.0 uM
[6] = target: Protein kinase C delta type (Homo sapiens) (UniProt Q05655); conditions: Compound concentration 1.0 uM
[7] = target: Tyrosine-protein kinase FRK (Homo sapiens) (UniProt P42685); conditions: Compound concentration 1.0 uM
[8] = target: Ribosomal protein S6 kinase alpha-6 (Homo sapiens) (UniProt Q9UK32); conditions: Compound concentration 1.0 uM
[9] = target: Insulin receptor (Homo sapiens) (UniProt P06213)
[10] = target: Dual specificity mitogen-activated protein kinase kinase 2 (Homo sapiens) (UniProt P36507); conditions: Compound concentration 1.0 uM
[11] = target: AMP-activated protein kinase (AMPK) alpha-1/beta-1/gamma-1 (Homo sapiens) (UniProt P54619+Q9Y478+Q13131)
[12] = target: Serine/threonine-protein kinase SBK1 (Homo sapiens) (UniProt Q52WX2); conditions: Compound concentration 1.0 uM
[13] = target: Calpain-1 catalytic subunit (Homo sapiens) (UniProt P07384); conditions: Compound concentration 10.0 uM
[14] = target: Serine/threonine-protein kinase 32B (Homo sapiens) (UniProt Q9NY57); conditions: Compound concentration 1.0 uM
[15] = target: Phosphatidylinositol 4-kinase type 2-beta (Homo sapiens) (UniProt Q8TCG2); assay: PI4K2B Invitrogen Lab (UK) kinase screen (BI); conditions: Compound concentration 1.0 uM
[16] = target: Tyrosine-protein kinase Blk (Homo sapiens) (UniProt P51451); assay: BLK Invitrogen Lab (UK) kinase screen (BI); conditions: Compound concentration 1.0 uM
[17] = target: Receptor-type tyrosine-protein kinase FLT3 (Homo sapiens) (UniProt P36888)
[18] = target: Serine/threonine-protein kinase Nek9 (Homo sapiens) (UniProt Q8TD19); conditions: Compound concentration 1.0 uM
[19] = target: TRAF2 and NCK-interacting protein kinase (Homo sapiens) (UniProt Q9UKE5); conditions: Compound concentration 1.0 uM
[20] = target: Serine/threonine-protein kinase ULK2 (Homo sapiens) (UniProt Q8IYT8); conditions: Compound concentration 1.0 uM
[21] = target: Prostaglandin G/H synthase 1 (Homo sapiens) (UniProt P23219); conditions: Compound concentration 10.0 uM
[22] = target: Ribosomal protein S6 kinase beta-2 (Homo sapiens) (UniProt Q9UBS0); assay: RPS6KB2 (P70S6KB) Invitrogen Lab (UK) kinase screen (BI); conditions: Compound concentration 1.0 uM
[23] = target: Ribosomal protein S6 kinase alpha-2 (Homo sapiens) (UniProt Q15349); conditions: Compound concentration 1.0 uM
[24] = target: Serine/threonine-protein kinase NLK (Homo sapiens) (UniProt Q9UBE8); conditions: Compound concentration 1.0 uM
[25] = target: Death-associated protein kinase 2 (Homo sapiens) (UniProt Q9UIK4); assay: DAPK2 Invitrogen Lab (UK) kinase screen (BI); conditions: Compound concentration 1.0 uM
[26] = target: Hepatocyte growth factor receptor (Homo sapiens) (UniProt P08581)
[27] = target: Muscle, skeletal receptor tyrosine-protein kinase (Homo sapiens) (UniProt O15146); assay: MUSK Invitrogen Lab (UK) kinase screen (BI); conditions: Compound concentration 1.0 uM
[28] = target: Phosphatidylinositol 3-kinase regulatory subunit beta/Phosphatidylinositol 4,5-bisphosphate 3-kinase catalytic subunit beta isoform (Homo sapiens) (UniProt P42338+O00459); assay: PIK3CB/PIK3R2 Invitrogen Lab (UK) kinase screen (BI); assay type: protein-complex assay; conditions: Compound concentration 1.0 uM
[29] = target: Dual specificity protein kinase CLK1 (Homo sapiens) (UniProt P49759); conditions: Compound concentration 1.0 uM
[30] = target: Serine/threonine-protein kinase/endoribonuclease IRE1 (Homo sapiens) (UniProt O75460); conditions: Compound concentration 1.0 uM
[31] = target: Dual specificity tyrosine-phosphorylation-regulated kinase 1A (Homo sapiens) (UniProt Q13627); assay: DYRK1A DUNDEE kinase screen (BI); conditions: Rattus norvegicus; Compound concentration 10.0 uM
[32] = target: Phosphatidylinositol 4-kinase type 2-alpha (Homo sapiens) (UniProt Q9BTU6); conditions: Compound concentration 1.0 uM
[33] = target: Phosphatidylinositol 4-phosphate 5-kinase type-1 alpha (Homo sapiens) (UniProt Q99755); assay: PIP5K1A Invitrogen Lab (UK) kinase screen (BI); conditions: Compound concentration 1.0 uM
[34] = target: PI3-kinase p110-alpha/p85-alpha (Homo sapiens) (UniProt P27986+P42336); assay: PIK3CAPIK3R1 Invitrogen Lab (UK) kinase screen (BI); assay type: protein-complex assay; conditions: Compound concentration 1.0 uM
[35] = target: Mitogen-activated protein kinase 14 (Homo sapiens) (UniProt Q16539)
[36] = target: AMPK alpha1/beta1/gamma3 (Homo sapiens) (UniProt Q9Y478+Q13131+Q9UGI9); assay: AMPK (A1/B1/G3) Invitrogen Lab (UK) kinase screen (BI); assay type: protein-complex assay; conditions: Compound concentration 1.0 uM
[37] = target: Serine/threonine-protein kinase mTOR (Homo sapiens) (UniProt P42345)
[38] = target: Serine/threonine-protein kinase Sgk1 (Homo sapiens) (UniProt O00141); conditions: Compound concentration 10.0 uM
[39] = target: Tyrosine-protein kinase Lyn (Homo sapiens) (UniProt P07948); conditions: Compound concentration 1.0 uM
[40] = target: Tyrosine-protein kinase TXK (Homo sapiens) (UniProt P42681); conditions: Compound concentration 1.0 uM
[41] = target: Phosphatidylinositol 4-phosphate 3-kinase C2 domain-containing subunit alpha (Homo sapiens) (UniProt O00443); conditions: Compound concentration 1.0 uM

Chain of Mitogen-activated protein kinase 14 (Homo sapiens) (Q16539 whole entry): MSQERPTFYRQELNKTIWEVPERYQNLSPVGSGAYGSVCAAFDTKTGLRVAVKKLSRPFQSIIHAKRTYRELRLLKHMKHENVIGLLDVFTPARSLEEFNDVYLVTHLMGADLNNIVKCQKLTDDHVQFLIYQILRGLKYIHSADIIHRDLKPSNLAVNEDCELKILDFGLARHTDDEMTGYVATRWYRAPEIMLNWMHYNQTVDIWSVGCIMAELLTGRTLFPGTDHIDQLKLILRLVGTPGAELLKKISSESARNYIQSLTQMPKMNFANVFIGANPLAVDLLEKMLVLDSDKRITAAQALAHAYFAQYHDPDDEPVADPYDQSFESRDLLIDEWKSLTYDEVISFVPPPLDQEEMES
Chain of Receptor-type tyrosine-protein kinase FLT3 (Homo sapiens) (P36888 whole entry): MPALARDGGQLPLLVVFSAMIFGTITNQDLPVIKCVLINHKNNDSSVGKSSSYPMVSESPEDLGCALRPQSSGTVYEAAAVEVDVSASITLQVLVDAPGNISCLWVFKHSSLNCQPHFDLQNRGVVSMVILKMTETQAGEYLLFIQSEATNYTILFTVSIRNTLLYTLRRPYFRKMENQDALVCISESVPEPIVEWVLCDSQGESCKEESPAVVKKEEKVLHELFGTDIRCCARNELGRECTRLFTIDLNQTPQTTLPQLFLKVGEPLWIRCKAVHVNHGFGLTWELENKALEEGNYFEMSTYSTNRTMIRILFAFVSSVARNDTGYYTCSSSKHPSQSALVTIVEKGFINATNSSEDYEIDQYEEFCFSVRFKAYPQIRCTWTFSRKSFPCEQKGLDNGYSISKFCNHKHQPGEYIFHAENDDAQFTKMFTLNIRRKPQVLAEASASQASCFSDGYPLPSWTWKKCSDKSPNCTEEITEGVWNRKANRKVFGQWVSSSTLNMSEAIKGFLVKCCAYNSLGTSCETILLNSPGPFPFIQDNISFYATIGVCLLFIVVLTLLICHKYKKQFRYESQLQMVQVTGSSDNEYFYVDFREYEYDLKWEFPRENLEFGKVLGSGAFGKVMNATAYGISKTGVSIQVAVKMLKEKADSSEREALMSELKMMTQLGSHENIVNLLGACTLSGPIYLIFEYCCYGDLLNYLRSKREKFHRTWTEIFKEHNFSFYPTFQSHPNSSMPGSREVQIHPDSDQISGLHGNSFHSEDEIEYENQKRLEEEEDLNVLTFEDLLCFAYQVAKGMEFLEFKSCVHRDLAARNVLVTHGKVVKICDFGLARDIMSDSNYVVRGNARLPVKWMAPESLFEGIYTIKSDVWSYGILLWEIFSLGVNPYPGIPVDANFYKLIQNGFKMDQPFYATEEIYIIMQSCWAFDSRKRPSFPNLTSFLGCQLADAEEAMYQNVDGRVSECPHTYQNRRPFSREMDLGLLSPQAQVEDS
Chain of Hepatocyte growth factor receptor (Homo sapiens) (P08581 whole entry): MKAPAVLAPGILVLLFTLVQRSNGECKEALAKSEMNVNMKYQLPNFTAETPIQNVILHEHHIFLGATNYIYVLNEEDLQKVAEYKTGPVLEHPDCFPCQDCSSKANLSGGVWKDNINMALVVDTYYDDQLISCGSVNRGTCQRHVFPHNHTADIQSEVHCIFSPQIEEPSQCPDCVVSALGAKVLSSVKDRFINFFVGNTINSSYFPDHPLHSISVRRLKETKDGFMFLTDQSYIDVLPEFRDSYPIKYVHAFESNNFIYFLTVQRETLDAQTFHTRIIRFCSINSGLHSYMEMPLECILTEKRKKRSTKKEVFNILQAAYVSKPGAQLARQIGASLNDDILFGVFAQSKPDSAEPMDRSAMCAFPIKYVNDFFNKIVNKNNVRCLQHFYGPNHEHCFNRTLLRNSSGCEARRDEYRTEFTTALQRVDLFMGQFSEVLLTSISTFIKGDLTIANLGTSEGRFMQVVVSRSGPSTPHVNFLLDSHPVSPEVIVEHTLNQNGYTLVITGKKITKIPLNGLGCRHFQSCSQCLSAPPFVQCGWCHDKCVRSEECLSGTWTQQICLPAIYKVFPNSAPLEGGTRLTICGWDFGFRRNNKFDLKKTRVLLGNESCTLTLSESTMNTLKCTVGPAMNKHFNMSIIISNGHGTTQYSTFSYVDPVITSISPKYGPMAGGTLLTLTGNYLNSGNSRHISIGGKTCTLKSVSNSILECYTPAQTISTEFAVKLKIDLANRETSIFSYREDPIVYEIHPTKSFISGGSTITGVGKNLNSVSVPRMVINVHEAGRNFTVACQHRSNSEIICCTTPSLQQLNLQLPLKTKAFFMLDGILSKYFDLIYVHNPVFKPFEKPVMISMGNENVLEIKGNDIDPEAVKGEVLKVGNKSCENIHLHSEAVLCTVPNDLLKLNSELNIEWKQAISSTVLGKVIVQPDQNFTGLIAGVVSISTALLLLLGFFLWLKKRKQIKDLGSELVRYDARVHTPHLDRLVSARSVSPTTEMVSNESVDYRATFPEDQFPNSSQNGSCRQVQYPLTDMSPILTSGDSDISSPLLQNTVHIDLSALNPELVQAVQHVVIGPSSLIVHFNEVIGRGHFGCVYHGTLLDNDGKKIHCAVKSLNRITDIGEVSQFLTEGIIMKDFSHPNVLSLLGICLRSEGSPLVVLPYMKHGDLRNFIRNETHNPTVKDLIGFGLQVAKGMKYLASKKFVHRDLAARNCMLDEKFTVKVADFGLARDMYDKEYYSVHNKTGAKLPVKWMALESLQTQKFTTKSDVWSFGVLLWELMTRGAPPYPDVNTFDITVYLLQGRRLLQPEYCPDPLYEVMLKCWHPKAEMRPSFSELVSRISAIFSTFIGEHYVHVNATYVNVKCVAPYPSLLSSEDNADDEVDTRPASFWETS
Chain of AMP-activated protein kinase (AMPK) alpha-1/beta-1/gamma-1 (Homo sapiens) (P54619 whole entry): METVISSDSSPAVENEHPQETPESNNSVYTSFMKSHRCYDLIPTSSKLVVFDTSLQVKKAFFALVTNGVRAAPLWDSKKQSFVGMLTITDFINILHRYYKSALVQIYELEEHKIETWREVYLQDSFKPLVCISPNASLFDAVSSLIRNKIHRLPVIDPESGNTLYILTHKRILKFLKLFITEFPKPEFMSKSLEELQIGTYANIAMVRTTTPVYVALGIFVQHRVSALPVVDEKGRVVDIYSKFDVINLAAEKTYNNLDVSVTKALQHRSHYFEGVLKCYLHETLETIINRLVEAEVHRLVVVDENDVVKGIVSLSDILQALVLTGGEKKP
Chain of AMP-activated protein kinase (AMPK) alpha-1/beta-1/gamma-1 (Homo sapiens) (Q13131 whole entry partner): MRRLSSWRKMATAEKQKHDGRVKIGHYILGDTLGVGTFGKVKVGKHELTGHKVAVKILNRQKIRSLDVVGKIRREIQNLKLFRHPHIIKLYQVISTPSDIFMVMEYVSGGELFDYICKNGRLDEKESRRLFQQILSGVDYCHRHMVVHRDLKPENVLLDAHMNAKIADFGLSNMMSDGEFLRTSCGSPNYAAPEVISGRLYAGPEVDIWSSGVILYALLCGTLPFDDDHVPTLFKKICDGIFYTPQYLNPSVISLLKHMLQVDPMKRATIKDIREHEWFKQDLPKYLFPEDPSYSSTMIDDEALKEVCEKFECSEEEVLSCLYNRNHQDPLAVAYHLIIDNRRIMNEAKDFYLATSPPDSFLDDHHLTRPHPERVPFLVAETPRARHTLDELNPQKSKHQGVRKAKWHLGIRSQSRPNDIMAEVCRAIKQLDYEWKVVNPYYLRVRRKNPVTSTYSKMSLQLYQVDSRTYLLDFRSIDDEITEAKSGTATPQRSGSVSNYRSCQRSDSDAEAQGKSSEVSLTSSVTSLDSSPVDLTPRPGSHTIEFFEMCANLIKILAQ
Chain of AMP-activated protein kinase (AMPK) alpha-1/beta-1/gamma-1 (Homo sapiens) (Q9Y478 2-270 partner limits assumed): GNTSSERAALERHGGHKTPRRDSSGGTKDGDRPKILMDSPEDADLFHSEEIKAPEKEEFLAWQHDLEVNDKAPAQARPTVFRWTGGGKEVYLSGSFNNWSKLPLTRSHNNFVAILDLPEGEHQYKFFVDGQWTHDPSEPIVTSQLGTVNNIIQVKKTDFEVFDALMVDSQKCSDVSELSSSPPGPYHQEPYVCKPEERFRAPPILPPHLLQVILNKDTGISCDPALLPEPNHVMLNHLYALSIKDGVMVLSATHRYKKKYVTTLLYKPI
Chain of Serine/threonine-protein kinase Nek9 (Homo sapiens) (Q8TD19 whole entry): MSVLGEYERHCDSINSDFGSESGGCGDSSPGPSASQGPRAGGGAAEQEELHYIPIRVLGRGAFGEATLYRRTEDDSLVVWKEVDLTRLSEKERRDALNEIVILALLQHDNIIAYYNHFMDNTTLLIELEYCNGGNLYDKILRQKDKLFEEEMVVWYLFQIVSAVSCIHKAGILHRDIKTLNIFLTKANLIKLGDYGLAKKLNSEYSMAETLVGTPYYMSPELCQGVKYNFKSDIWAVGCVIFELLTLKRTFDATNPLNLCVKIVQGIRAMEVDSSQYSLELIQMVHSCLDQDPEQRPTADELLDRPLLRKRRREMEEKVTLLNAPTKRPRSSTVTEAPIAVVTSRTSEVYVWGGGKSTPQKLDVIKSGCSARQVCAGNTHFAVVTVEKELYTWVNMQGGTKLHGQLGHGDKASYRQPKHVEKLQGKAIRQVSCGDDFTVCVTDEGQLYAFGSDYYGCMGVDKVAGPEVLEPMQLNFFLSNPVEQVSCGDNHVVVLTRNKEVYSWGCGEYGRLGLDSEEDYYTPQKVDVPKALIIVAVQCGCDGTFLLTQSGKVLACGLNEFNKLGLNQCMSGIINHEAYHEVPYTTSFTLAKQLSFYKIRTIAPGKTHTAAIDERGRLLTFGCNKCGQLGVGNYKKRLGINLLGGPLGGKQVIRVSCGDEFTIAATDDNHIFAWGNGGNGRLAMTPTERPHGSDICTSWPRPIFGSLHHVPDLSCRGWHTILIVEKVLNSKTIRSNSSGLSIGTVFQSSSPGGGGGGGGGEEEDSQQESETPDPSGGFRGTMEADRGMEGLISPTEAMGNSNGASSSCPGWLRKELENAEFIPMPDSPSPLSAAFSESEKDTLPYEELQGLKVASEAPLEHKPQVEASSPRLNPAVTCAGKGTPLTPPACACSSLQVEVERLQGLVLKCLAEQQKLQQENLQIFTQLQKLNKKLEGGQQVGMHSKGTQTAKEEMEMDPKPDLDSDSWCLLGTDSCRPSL

CCC(F)(F)c1cc(N2CCC(S(C)(=O)=O)CC2)nc2sc(C(N)=O)c(N)c12 [BI-605906]
residual activity [1]: 90%
residual activity [2]: 81%
residual activity [3]: 31%
residual activity [4]: 98%
residual activity [5]: 93.8%
residual activity [6]: 109%
residual activity [7]: 92%
residual activity [8]: 98%
residual activity ([9]; Compound concentration 1.0 uM): 94%
residual activity ([9]; Compound concentration 10.0 uM): 93%
residual activity [10]: 91%
residual activity ([11]; Compound concentration 1.0 uM): 95%
residual activity ([11]; Compound concentration 10.0 uM): 80%
residual activity [12]: 98%
residual activity [13]: 97%
residual activity [14]: 96%
residual activity [15]: 102%
residual activity [16]: 88%
residual activity ([17]; Compound concentration 1.0 uM): 71%
residual activity ([17]; Compound concentration 10.0 uM): 38%
residual activity [18]: 99%
residual activity [19]: 99%
residual activity [20]: 93%
residual activity [21]: 105%
residual activity [22]: 86%
residual activity [23]: 96%
residual activity [24]: 93%
residual activity [25]: 79%
residual activity ([26]; Compound concentration 1.0 uM): 103%
residual activity ([26]; Compound concentration 10.0 uM): 90%
residual activity [27]: 84%
residual activity [28]: 112%
residual activity [29]: 92%
residual activity [30]: 82%
residual activity [31]: 74.9%
residual activity [32]: 92%
residual activity [33]: 83%
residual activity [34]: 103%
residual activity ([35]; Compound concentration 1.0 uM): 92%
residual activity ([35]; Compound concentration 10.0 uM): 60%
residual activity [36]: 84%
residual activity ([37]; Compound concentration 1.0 uM): 99%
residual activity ([37]; Compound concentration 10.0 uM): 98%
residual activity [38]: 101%
residual activity [39]: 82%
residual activity [40]: 93%
residual activity [41]: 97%
